Assay results as given in the NIST ThermoML archive (doi:10.1021/acs.jced.5b00447).

Assay: xn = mol fraction of the nth substance listed
Details: for surface tension liquid-gas: wilhelmi plate; for viscosity / speed of sound / mass density: 100 kPa, Liquid; for viscosity: Capillary tube (Ostwald / Ubbelohde) method; for speed of sound: Frequency=3 MHz, Sing-around technique in a fixed-path interferometer; for mass density: Vibrating tube method

CN(C)CCN [2-dimethylamino-1-ethylamine] + O
Details	mass density [kg/m3]	speed of sound [m/s]	surface tension liquid-gas [mN/m]	viscosity [mPa·s]
293.15 K, x1 = 0.1002	975	1773.4	42.6	6.83
293.15 K, x1 = 0.2	952	1708.6	37.1	12.66
293.15 K, x1 = 0.3002	920	1605.4	32.9	10.5
293.15 K, x1 = 0.3996	895	1517.2	30.6	6.463
293.15 K, x1 = 0.5035	874	1456.6	29.4	3.875
293.15 K, x1 = 0.5995	858	1419.2	28.6	2.743
293.15 K, x1 = 0.7007	844	1387.2	27.9	1.965
293.15 K, x1 = 0.8002	833	1349.8	27.4	1.464
293.15 K, x1 = 0.8999	825	1328	26.9	1.162
293.15 K, x1 = 1	819	1319.6	26.4	0.988
303.15 K, x1 = 0.1002	970	1743.6	41.9	4.28
303.15 K, x1 = 0.2	943	1672.8	36.3	7.355
303.15 K, x1 = 0.3002	912	1568.6	32.2	6.268
303.15 K, x1 = 0.3996	886	1480.2	29.8	4.148
303.15 K, x1 = 0.5035	865	1419.2	28.6	2.709
303.15 K, x1 = 0.5995	849	1381.6	27.8	2.013
303.15 K, x1 = 0.7007	835	1349	27.1	1.51
303.15 K, x1 = 0.8002	824	1305.2	26.6	1.161
303.15 K, x1 = 0.8999	816	1288.7	26.1	0.94
303.15 K, x1 = 1	810	1279.3	25.8	0.819
313.15 K, x1 = 0.1002	963	1712.8	41.3	2.891
313.15 K, x1 = 0.2	935	1636.1	35.2	4.689
313.15 K, x1 = 0.3002	901	1531.3	31.2	4.105
313.15 K, x1 = 0.3996	877	1443.1	28.9	2.884
313.15 K, x1 = 0.5035	856	1381.8	27.8	2.019
313.15 K, x1 = 0.5995	840	1343.3	27	1.552
313.15 K, x1 = 0.7007	826	1310.3	26.3	1.192
313.15 K, x1 = 0.8002	814	1266.2	25.8	0.937
313.15 K, x1 = 0.8999	806	1249.2	25.3	0.773
313.15 K, x1 = 1	801	1239	25.2	0.693
323.15 K, x1 = 0.1002	955	1682	40.4	2.069
323.15 K, x1 = 0.2	926	1598.4	34.3	3.179
323.15 K, x1 = 0.3002	893	1493.1	30.6	2.853
323.15 K, x1 = 0.3996	868	1411.3	27.9	2.105
323.15 K, x1 = 0.5035	847	1343.5	27.1	1.519
323.15 K, x1 = 0.5995	831	1305.1	26.4	1.201
323.15 K, x1 = 0.7007	817	1271.7	25.7	0.967
323.15 K, x1 = 0.8002	806	1227	25.2	0.804
323.15 K, x1 = 0.8999	797	1209.1	24.7	0.686
323.15 K, x1 = 1	791	1199.3	24.5	0.596
